Laboratory results as given in US20090036422A1 (priority 2007, published 2009).
Structures can show the parent of a compound that is named as a salt.

biological target: T1, human orexin-2 (hOX2) receptor (Homo sapiens, UniProt O43614); experiment: Intracellular Ca2+ mobilization assay (FLIPR), CHO(dHFr-) cells expressing hOX2, orexin-A at EC80 as agonist; assay type: cell-based; details: Kb=IC50/(1+[A]/EC50); CHO(dHFr-)-OX2R cells, antagonist applied 25 min before orexin-A EC80
T1 construct: expressed in transfected cells
T1 sequence (O43614 1-444): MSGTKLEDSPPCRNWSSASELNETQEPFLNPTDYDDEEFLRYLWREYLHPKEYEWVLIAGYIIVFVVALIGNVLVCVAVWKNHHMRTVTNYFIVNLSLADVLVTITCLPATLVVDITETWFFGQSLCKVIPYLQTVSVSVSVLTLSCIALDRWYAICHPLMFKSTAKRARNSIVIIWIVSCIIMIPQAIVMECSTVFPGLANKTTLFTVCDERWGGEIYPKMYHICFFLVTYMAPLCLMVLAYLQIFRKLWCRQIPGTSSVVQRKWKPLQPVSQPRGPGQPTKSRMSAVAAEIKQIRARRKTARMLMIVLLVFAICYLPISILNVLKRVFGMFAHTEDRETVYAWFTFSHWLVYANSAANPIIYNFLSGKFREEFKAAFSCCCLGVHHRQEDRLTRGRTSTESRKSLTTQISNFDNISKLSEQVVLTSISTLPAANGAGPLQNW
Experimental: Intracellular Ca^2+ Mobilization Assay
The Chinese Hamster Ovary (dHFr−) mutant cell line stably expressing human orexin-1 (hOX1) or human orexin-2 (hOX2) receptors were maintained in Dulbecco's Modified Eagle Medium (1×) with GlutaMax™ 1, 4500 mg/L D-Glucose and Sodium Pyruvate (Catalog No. 31966-021, Invitrogen, Carlsbad, Calif.), 5% dialyzed fetal calf serum (Catalog No. 26400-044), 100 μg/ml penicillin and 100 μg/ml streptomycin. The cells were seeded at 5×10^4 cells/well in the poly-D-lysine treated, 96-well, black/clear-bottomed plates (Catalog No. BD356640, BD Biosciences, Palo Alto, Calif.). 24 h later, the cells were loaded for 1 h at 37° C. with 4 μM Flou-4 acetoxymethyl ester (Catalog No. F-14202, Molecular Probes, Eugene, Oreg.) in FLIPR buffer (1×HBSS, 20 mM HEPES, 2.5 mM Probenecid). Hanks' Balanced Salt Solution (HBSS) (10×) (catalog No. 14065-049) and HEPES (1M) (catalog No. 15630-056) were purchased from Invitrogen, Carlsbad, Calif. Probenecid (250 mM) (catalog No. P8761) was from Sigma, Buchs, Switzerland. The cells were washed five times with FLIPR buffer to remove excess dye and intracellular calcium mobilization, [Ca^2+]i were measured using a Fluorometric Imaging Plate Reader (FLIPR-96, Molecular Devices, Menlo Park, Calif.) as described previously (Malherbe et al., Mol. Pharmacol., 64, 823-832, 2003). Orexin A (catalog No. 1455, Toris Cookson Ltd, Bristol, UK) was used as agonist. Orexin A (50 mM stock solution in DMSO) was diluted in FLIPR buffer +0.1% BSA. The EC50 and EC80 values of orexin-A were measured daily from standard agonist concentration-response curves in CHO(dHFr−) —OX1R and —OX2R cell lines. All compounds were dissolved in 100% DMSO. Inhibition curves were determined by addition of 11 concentrations (0.0001-10 μM) of inhibitory compounds and using EC80 value of orexin-A as agonist (a concentration which gave 80% of max agonist response, determined daily). The antagonists were applied 25 min (incubation at 37° C.) before the application of the agonist. Responses were measured as peak increase in fluorescence minus basal, normalized to the maximal stimulatory effect induced by EC80 value of orexin-A or orexin-B. Inhibition curves were fitted according to the Hill equation: y=100/(1+(x/IC50)^nH), where nH=slope factor using Excel-fit 4 software (Microsoft).
Kb values were calculated according to the following equation Kb=IC50/(1+[A]/EC50) where A is the concentration of agonist added which is very close to agonist EC80 value, and IC50 and EC50 values were derived from the antagonist inhibition and orexin-A or B agonist curves, respectively.

Kb	SMILES
0.0579 µM	Cc1cccc(N(CCc2ccc(C(F)(F)F)cc2)C(=O)C(N)c2ccccc2)c1 (stereo not shown) [Example 70, 2-Amino-2-phenyl-N-m-tolyl-N-[2-(4-trifluoromethyl-phenyl)-ethyl]-acetamide]
0.0023 µM	COc1ccc(N(CCc2ccc(C(F)(F)F)cc2)C(=O)[C@@H](NC2COC2)c2ccccc2)cc1OC [Example 72, (S)—N-(3,4-Dimethoxy-phenyl)-2-(oxetan-3-ylamino)-2-phenyl-N-[2-(4-trifluoromethyl-phenyl)-ethyl]-acetamide]
0.0523 µM	COc1ccc(N(CCc2ccc(C(F)(F)F)cc2)C(=O)C(N)c2ccccc2)cc1 (stereo not shown) [Example 75, 2-Amino-N-(4-methoxy-phenyl)-2-phenyl-N-[2-(4-trifluoromethyl-phenyl)-ethyl]-acetamide]
0.0444 µM	COc1ccc(CCN(C(=O)C(N)c2ccccc2)c2ccc(OC(F)(F)F)cc2)cc1OC (stereo not shown) [Example 78, 2-Amino-N-[2-(3,4-dimethoxy-phenyl)-ethyl]-2-phenyl-N-(4-trifluoromethoxy-phenyl)-acetamide]
0.0698 µM	Cc1cc(N(CCc2ccc(C(F)(F)F)cc2)C(=O)C(N)c2ccccc2)ccc1F (stereo not shown) [Example 83, 2-Amino-N-(4-fluoro-3-methyl-phenyl)-2-phenyl-N-[2-(4-trifluoromethyl-phenyl)-ethyl]-acetamide]
0.0666 µM	Cc1ccc(N(CCc2ccc(C(F)(F)F)cc2)C(=O)C(N)c2ccccc2)cc1C (stereo not shown) [Example 84, 2-Amino-N-(3,4-dimethyl-phenyl)-2-phenyl-N-[2-(4-trifluoromethyl-phenyl)-ethyl]-acetamide]
0.0074 µM	COc1ccc(N(CCc2ccc(C(F)(F)F)cc2)C(=O)C(N)c2cccc(F)c2)cc1OC (stereo not shown) [Example 85, 2-Amino-N-(3,4-dimethoxy-phenyl)-2-(3-fluoro-phenyl)-N-[2-(4-trifluoromethyl-phenyl)-ethyl]-acetamide]
0.0819 µM	Cc1ccc(CCN(C(=O)C(N)c2ccccc2)c2ccc(F)c(C)c2)cc1 (stereo not shown) [Example 88, 2-Amino-N-(4-fluoro-3-methyl-phenyl)-2-phenyl-N-(2-p-tolyl-ethyl)-acetamide]
0.0241 µM	Cc1ccc(CCN(C(=O)C(N)c2ccccc2)c2ccc(C)c(C)c2)cc1 (stereo not shown) [Example 89, 2-Amino-N-(3,4-dimethyl-phenyl)-2-phenyl-N-(2-p-tolyl-ethyl)-acetamide]
0.0888 µM	Cc1ccc(N(CCc2ccc(Cl)cc2)C(=O)C(N)c2ccccc2)cc1C (stereo not shown) [Example 93, 2-Amino-N-[2-(4-chloro-phenyl)-ethyl]-N-(3,4-dimethyl-phenyl)-2-phenyl-acetamide]
0.0834 µM	NC(C(=O)N(CCc1ccc(C(F)(F)F)cc1)c1cccc(C2(O)COC2)c1)c1ccccc1 (stereo not shown) [Example 95, 2-Amino-N-[3-(3-hydroxy-oxetan-3-yl)-phenyl]-2-phenyl-N-[2-(4-trifluoromethyl-phenyl)-ethyl]-acetamide]
0.0133 µM	CN[C@H](C(=O)N(CCc1ccc(C(F)(F)F)cc1)c1ccc(OC)c(OC)c1)c1ccccc1OC [Example 101, (S)—N-(3,4-Dimethoxy-phenyl)-2-(2-methoxy-phenyl)-2-methylamino-N-[2-(4-trifluoromethyl-phenyl)-ethyl]-acetamide hydrochloride]
0.0053 µM	COc1ccc(N(CCc2ccc(C(F)(F)F)cc2)C(=O)[C@@H](N)c2ccccc2OC)cc1OC [Example 103, (S)-2-Amino-N-(3,4-dimethoxy-phenyl)-2-(2-methoxy-phenyl)-N-[2-(4-trifluoromethyl-phenyl)-ethyl]-acetamide hydrochloride]
0.022 µM	COc1cc(N(CCc2ccc(C(F)(F)F)cc2)C(=O)C(N)c2ccccc2)ccc1F (stereo not shown) [Example 104, 2-Amino-N-(4-fluoro-3-methoxy-phenyl)-2-phenyl-N-[2-(4-trifluoromethyl-phenyl)-ethyl]-acetamide]
0.0414 µM	NC(C(=O)N(CCc1ccc(C(F)(F)F)cc1)c1ccc(OC(F)F)cc1)c1ccccc1 (stereo not shown) [Example 105, 2-Amino-N-(4-difluoromethoxy-phenyl)-2-phenyl-N-[2-(4-trifluoromethyl-phenyl)-ethyl]-acetamide]
0.0071 µM	Cc1ccc(CCN(C(=O)C(NCCO)c2ccccc2)c2ccc(C)c(C)c2)cc1 (stereo not shown) [Example 106, N-(3,4-Dimethyl-phenyl)-2-(2-hydroxy-ethylamino)-2-phenyl-N-(2-p-tolyl-ethyl)-acetamide]
0.0509 µM	NC(C(=O)N(CCc1ccc(C(F)(F)F)cc1)c1cccc(OC(F)F)c1)c1ccccc1 (stereo not shown) [Example 107, 2-Amino-N-(3-difluoromethoxy-phenyl)-2-phenyl-N-[2-(4-trifluoromethyl-phenyl)-ethyl]-acetamide]
0.0335 µM	COc1ccc(Cl)c(N(CCc2ccc(C(F)(F)F)cc2)C(=O)C(N)c2ccccc2)c1 (stereo not shown) [Example 110, 2-Amino-N-(2-chloro-5-methoxy-phenyl)-2-phenyl-N-[2-(4-trifluoromethyl-phenyl)-ethyl]-acetamide]
0.0446 µM	COCC(C)NC(C(=O)N(CCc1ccc(C)cc1)c1ccc(C)c(C)c1)c1ccccc1 (stereo not shown) [Example 120, N-(3,4-Dimethyl-phenyl)-2-(2-methoxy-1-methyl-ethylamino)-2-phenyl-N-(2-p-tolyl-ethyl)-acetamide]
0.0109 µM	Cc1ccc(CCN(C(=O)C(NCC(C)O)c2ccccc2)c2ccc(C)c(C)c2)cc1 (stereo not shown) [Example 121, N-(3,4-Dimethyl-phenyl)-2-(2-hydroxy-propylamino)-2-phenyl-N-(2-p-tolyl-ethyl)-acetamide]
0.0225 µM	Cc1ccc(CCN(C(=O)C(NC(C)CO)c2ccccc2)c2ccc(C)c(C)c2)cc1 (stereo not shown) [Example 122, N-(3,4-Dimethyl-phenyl)-2-(2-hydroxy-1-methyl-ethylamino)-2-phenyl-N-(2-p-tolyl-ethyl)-acetamide]
0.0727 µM	Cc1ccc(CCN(C(=O)C(NC(CO)C(C)C)c2ccccc2)c2ccc(C)c(C)c2)cc1 (stereo not shown) [Example 123, N-(3,4-Dimethyl-phenyl)-2-(1-hydroxymethyl-2-methyl-propylamino)-2-phenyl-N-(2-p-tolyl-ethyl)-acetamide]
0.0267 µM	CCC(COC)NC(C(=O)N(CCc1ccc(C)cc1)c1ccc(C)c(C)c1)c1ccccc1 (stereo not shown) [Example 125, N-(3,4-Dimethyl-phenyl)-2-(1-methoxymethyl-propylamino)-2-phenyl-N-(2-p-tolyl-ethyl)-acetamide]
0.0086 µM	CC(=O)NCCNC(C(=O)N(CCc1ccc(C)cc1)c1ccc(C)c(C)c1)c1ccccc1 (stereo not shown) [Example 126, 2-(2-Acetylamino-ethylamino)-N-(3,4-dimethyl-phenyl)-2-phenyl-N-(2-p-tolyl-ethyl)-acetamide]
0.0222 µM	Cc1ccc(CCN(C(=O)C(NCC2CCCO2)c2ccccc2)c2ccc(C)c(C)c2)cc1 (stereo not shown) [Example 127, N-(3,4-Dimethyl-phenyl)-2-phenyl-2-[(tetrahydro-furan-2-ylmethyl)-amino]-N-(2-p-tolyl-ethyl)-acetamide]
0.0173 µM	COC(CNC(C(=O)N(CCc1ccc(C)cc1)c1ccc(C)c(C)c1)c1ccccc1)OC (stereo not shown) [Example 129, 2-(2,2-Dimethoxy-ethylamino)-N-(3,4-dimethyl-phenyl)-2-phenyl-N-(2-p-tolyl-ethyl)-acetamide]
0.0416 µM	Cc1ccc(CCN(C(=O)C(NCc2ccco2)c2ccccc2)c2ccc(C)c(C)c2)cc1 (stereo not shown) [Example 130, N-(3,4-Dimethyl-phenyl)-2-[(furan-2-ylmethyl)-amino]-2-phenyl-N-(2-p-tolyl-ethyl)-acetamide]
0.022 µM	CCC(O)CNC(C(=O)N(CCc1ccc(C)cc1)c1ccc(C)c(C)c1)c1ccccc1 (stereo not shown) [Example 131, N-(3,4-Dimethyl-phenyl)-2-(2-hydroxy-butylamino)-2-phenyl-N-(2-p-tolyl-ethyl)-acetamide]
